The record followed here is patent publication US6353007B1, “Substituted 1-(4-aminophenyl)indoles and their use as anti-inflammatory agents” (Boehringer Ingelheim Pharmaceuticals, Inc., priority 2000, dated 2002).

The assay deals with IL-2 promoter/enhancer. As to the kind of experiment: IL-2 promoter assay (luciferase reporter, J.1F/C6 Jurkat cells, ionomycin and PMA induction). It counts as cell-based. Conditions: Homo sapiens; J.1F/C6 Jurkat cell line; induction with ionomycin and PMA; read-out: IC50, inhibition of luciferase activity. An excerpt: The IL-2 promoter assay measures transcriptional activation of a luciferase reporter gene which has been placed under control of the IL-2 promoter/enhancer. All the known regulatory features of the IL-2 gene are contained within a ˜300 bp sequence immediately upstream of the open reading frame. The region −328 to +35 relative to the transcription start site of the IL-2 gene is obtained by […] of human genomic DNA and is subcloned into the promoterless luciferase reporter vector pGL2-Basic (Promega). The resulting construct, pIL2P-luc, and a vector containing a neomycin resistance gene, pcDNA/Neo (Invitrogen), are linearized and stably transfected into Jurkat cells (a human T cell line) by electroporation.
For screening compounds, the cells are pelleted by centrifugation, washed once with PBS, resuspended in RPMI (phenol red-free) containing 5% FBS, and dispensed into 96-well, white microtiter plates (Packard) at 50,000 cells/well. The cells are pre-incubated with compounds (1 μg/ml) for 15 min prior to addition of ionomycin (1 μg/ml) and PMA (10 ng/ml) in a final volume of 100 μl. Following a 5 hr incubation at 37° C. in a humidified incubator, 100 μl of Luc-Lite lysis buffer/luciferase assay buffer (Promega) is added and luminescence measured using a Packard TopCount scintillation counter/luminometer.

Regarding `C=CC[C@@H]1/C=C(\C)C[C@H](C)C[C@H](OC)[C@H]2O[C@@](O)(C(=O)C(=O)N3CCCC[C@H]3C(=O)O[C@H](/C(C)=C/[C@@H]3CC[C@@H](O)[C@H](OC)C3)[C@H](C)[C@@H](O)CC1=O)[C@H](C)C[C@@H]2OC` [FK506], the 50% inhibitory concentration (IC50) (usually the point on the concentration scale where inhibition reaches its midpoint) is 0.3 nM.
